Data set [1] in a line: Proton exchange pKA of probe. Type of data set: physicochemical. The note with it: dynamic proton exchange of the probe. As to the method:
Displacement of Mn^2+ from RNA by RSG1.2, or neomycin b: Binding of RSG1.2 and neomycin b to each of the hairpins was studied at [RNA] between 20 and 30 μM, and again at [RNA]˜3 μM. The higher concentration studies were performed in a manner identical to that described above for the Mg^2+ exchange reactions. For the low concentration studies, HPO3^2− (20 mM) was used as the probe ion. Reactions were run in 10 mM PIPES buffer, with 45 mM KCl and [Mn^2+] between 50 and 150 nM. The pH of the samples was maintained at 7.8 in these experiments. Studies utilizing HPO3^2− are impractical at lower pH where the probe undergoes dynamic proton exchange (pKA=6.0) leading to significant shortening of the diamagnetic ^31P T2.

Data set [2] concerns 27-nt A-site RNA construct. Kind of data set: Displacement of Mn2+ from RNA by neomycin (probe 31P relaxation). The format is binding. As to the method: The ^31P T2 was measured for each sample by varying the length (number of pulses) of the CPMG portion of the pulse sequence in FIG. 2 and determining the effect of this change on the intensity (i) of the signals. […] The dl delay was typically 5 to 20 seconds, and delays in the inept and reverse inept parts of the sequence were set to a value equal to 1/4J, where J is the ^1H—^31P coupling constant. Delays between pulses in the CPMG train varied from 50 to 500 microseconds.
The data shown in FIG. 9 were most consistent with a model where three neomycin molecules were bound to each RNA molecule with subsequent release of Mn^2+.
(§1) Mn^2+ binding by RNA constructs, and its displacement by either K^+ or Mg^2+. Samples containing MeOPH (5 mM) and PIPES buffer (5 mM, pH=7.2), and 3 μM Mn^2+ were titrated with each RNA. The ^31P transverse relaxation rates (R2=1/T2) of the probe in the resulting solutions were measured. Plots of R2 versus [RNA] were prepared. The effects of [K^+] and [Mg^2+] on Mn^2+ binding were determined by titrating similar solutions containing buffer, MeOPH, Mn^2+ and one of the RNAs (10 to 30 μM) with solutions of either KCl or MgCl2, and monitoring the relaxation rate of the probe as a function of cation concentration. The effects of [K^+] were studied over the range of 12.5 to 150 mM ([…] K^+ is reportedly 140 mM). Mn^2+ displacements from each of the hairpins by Mg^2+, neomycin b, and RSG1.2 were studied in the absence of added KCl and with sufficient KCl added to bring the total [K^+] to 100 mM.
Displacement of Mn^2+ from RNA by RSG1.2, or neomycin b: Binding of RSG1.2 and neomycin b to each of the hairpins was studied at [RNA] between 20 and 30 μM, and again at [RNA]˜3 μM. The higher concentration studies were performed in a manner identical to that described above for the Mg^2+ exchange reactions. For the low concentration studies, HPO3^2− (20 mM) was used as the probe ion. Reactions were run in 10 mM PIPES buffer, with 45 mM KCl and [Mn^2+] between 50 and 150 nM. The pH of the samples was maintained at 7.8 in these experiments. […]

A further data set concerns another RRE1 model. Conditions: cited from earlier work.
In the next data set the test system is RRE2. Nature of the data set: Displacement of Mn2+ from RNA by neomycin b (probe 31P relaxation). The format is binding. The note with it: each condition studied. As to the method:
as §1
(§2) Displacement of Mn^2+ from RNA by RSG1.2, or neomycin b: Binding of RSG1.2 and neomycin b to each of the hairpins was studied at [RNA] between 20 and 30 μM, and again at [RNA]˜3 μM. The higher concentration studies were performed in a manner identical to that described above for the Mg^2+ exchange reactions. For the low concentration studies, HPO3^2− (20 mM) was used as the probe ion. Reactions were run in 10 mM PIPES buffer, with 45 mM KCl and [Mn^2+] between 50 and 150 nM. […]

A further data set has as its system RRE1. Described as above. The format is binding. The note with it: each condition studied. As to the method:
as §1, §2

Turning to `O=[PH](O)O` [HPO3^2−, phosphite dianion], the pKA in data set [1] is listed as 6.0.

Turning to `NC[C@@H]1O[C@H](O[C@H]2[C@@H](O)[C@H](O[C@@H]3[C@@H](O)[C@H](N)C[C@H](N)[C@H]3O[C@H]3O[C@H](CN)[C@@H](O)[C@H](O)[C@H]3N)O[C@@H]2CO)[C@H](N)[C@@H](O)[C@@H]1O` [neomycin, neomycin b], the “neomycin molecules bound to each RNA molecule” value in data set [2] (RNA 27 μM, Mn^2+ 16 μM (Example 11)) is “three”. Also, the “equivalents of neomycin bound” value in data set [2] ([RNA]=2.7 μM, 100 mM K^+) was “single equivalent”; in data set [2] ([RNA]=27 μM (Example 16, data not shown)), 3; in the data set with RRE2, “multiple equivalents”; in the data set with RRE1, “multiple equivalents”. The “equivalents of neomycin b bound” value in the data set on another RRE1 model is listed as “three”.

The record behind these values is patent US7037660B2, “Methods for detecting and quantifying binding and inhibition of binding of species to nucleic acids” (Message Pharmaceuticals, priority 2001, dated 2006).
